The source of these data is patent publication US9845326B2, “Substituted 3,4-dihydropyrrolo[1,2-A]pyrazines as beta-secretase (BACE) inhibitors” (priority 2011, dated 2017).

Molecules are shown by their SMILES.

One experiment deals with Aβtotal. The experiment can be described thus: Cellular αlisa assay in SKNBE2 cells, Aβtotal. It counts as cell-based, human. Particulars: SKNBE2 cells expressing hAPP695, 18 hours incubation; for IC50: Homo sapiens, SKNBE2, 18 h, read-out: Cellular αlisa assay in SKNBE2 cells Aβtotal pIC50 (converted). As to the method:
(§1) In two αlisa assays the levels of Aβtotal and Aβ42 produced and secreted into the medium of human neuroblastoma SKNBE2 cells are quantified. The assay is based on the human neuroblastoma SKNBE2 expressing the wild type Amyloid Precursor Protein (hAPP695). The compounds are diluted and added to these cells, incubated for 18 hours and then measurements of Aβ42 and Aβtotal are taken. Aβtotal and Aβ42 are measured by sandwich αlisa. αlisa is a sandwich assay using biotinylated antibody AbN/25 attached to streptavidin coated beads and antibody Ab4G8 or cAb42/26 conjugated acceptor beads for the detection of Aβtotal and Aβ42 respectively. In the presence of Aβtotal or Aβ42, the beads come into close proximity. The excitation of the Donor beads provokes the release of singlet oxygen molecules that triggers a cascade of energy transfer in the Acceptor beads, resulting in light emission. Light emission is measured after 1 hour incubation (excitation at […] and emission at 615 nm).
(§2) From this an […] value (inhibitory concentration causing 50% inhibition of activity) can be obtained.

The next experiment addresses BACE1 (Homo sapiens, UniProt P56817). The experiment can be described thus: Biochemical FRET based assay. The note with it: Biochemical FRET based assay pIC50, recombinant BACE1 1 μg/ml, 120 min, room temperature, pH 5.0. The text has this: This assay is a Fluorescence Resonance Energy Transfer Assay (FRET) based assay. The substrate for this assay is an APP derived 13 amino acids peptide that contains the ‘Swedish’ Lys-Met/Asn-Leu mutation of the amyloid precursor protein (APP) β-secretase cleavage site. This substrate also contains two fluorophores: (7-methoxy-coumarin-4-yl) acetic acid (Mca) is a fluorescent donor with excitation wavelength at 320 nm and emission at 405 nm and 2,4-Dinitrophenyl (Dnp) is a proprietary quencher acceptor. […] Upon cleavage by BACE1, the fluorophore Mca is separated from the quenching group Dnp, restoring the full fluorescence yield of the donor. The increase in fluorescence is linearly related to the rate of proteolysis (Koike H et al. J. Biochem. 1999, 126, 235-242).
Briefly in a 384-well format recombinant BACE1 protein in a final concentration of 1 μg/ml is incubated for 120 min at room temperature with 10 μm substrate in incubation buffer (40 mM Citrate buffer pH 5.0, 0.04% PEG, 4% DMSO) in the absence or presence of compound. Next the amount of proteolysis is directly measured by fluorescence measurement at T=0 and T=120 (excitation at 320 nm and emission at 405 nm). Results are expressed in RFU, as difference between T120 and T0
From this an IC50 value (inhibitory concentration causing 50% inhibition of activity) can be obtained.

For the next experiment, the system named is Aβ42. The experiment can be described thus: Cellular αlisa assay in SKNBE2 cells, Aβ42. The format is cell-based, human. Particulars: SKNBE2 cells expressing hAPP695, 18 hours incubation; for IC50: Homo sapiens, SKNBE2, 18 h, read-out: Cellular αlisa assay in SKNBE2 cells Aβ42 pIC50 (converted). As for the experimental part:
as §1, §2

Sequence of BACE1 (P56817 46-501): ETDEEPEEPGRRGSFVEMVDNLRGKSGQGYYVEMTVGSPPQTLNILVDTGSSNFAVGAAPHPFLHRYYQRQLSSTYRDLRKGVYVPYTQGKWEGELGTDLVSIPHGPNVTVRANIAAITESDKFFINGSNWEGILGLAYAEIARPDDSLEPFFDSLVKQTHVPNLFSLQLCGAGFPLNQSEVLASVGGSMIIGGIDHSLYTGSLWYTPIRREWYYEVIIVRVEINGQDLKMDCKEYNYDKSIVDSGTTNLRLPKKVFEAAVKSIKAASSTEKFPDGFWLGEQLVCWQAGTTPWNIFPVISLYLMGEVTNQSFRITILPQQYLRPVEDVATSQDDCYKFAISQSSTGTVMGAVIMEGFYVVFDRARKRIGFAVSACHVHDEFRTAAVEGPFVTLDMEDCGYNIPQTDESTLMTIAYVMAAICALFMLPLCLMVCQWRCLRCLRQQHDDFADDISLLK

For `CC1(c2cccc(-c3cncnc3)c2)Cn2cccc2C(N)=N1` (racemic) [Compound 1, rac-3-methyl-3-(3-pyrimidin-5-yl-phenyl)-3,4-dihydro-pyrrolo[1,2-a]pyrazin-1-ylamine], the IC50 was 3890 nM in the experiment with Aβtotal, 12000 nM at BACE1 and 3980 nM in the experiment on Aβ42.
For `CC1(c2cccc(-c3cc(Cl)cc(Cl)c3)c2)Cn2cccc2C(N)=N1` (racemic) [Compound 2, rac-3-(3′,5′-dichloro-biphenyl-3-yl)-3-methyl-3,4-dihydro-pyrrolo[1,2-a]pyrazin-1-ylamine] the same measures were 4270 nM, 3720 nM and 4470 nM.
Regarding `CC1(c2cccc(NC(=O)c3ccc(Cl)cn3)c2)Cn2cccc2C(N)=N1` (racemic) [Compound 3, rac-5-chloro-pyridine-2-carboxylic acid[3-(1-amino-3-methyl-3,4-dihydro-pyrrolo[1,2-a]pyrazin-3-ye-phenyl]-amide], the IC50 in the experiment with Aβtotal is 95.5 nM; at BACE1, 135 nM; in the experiment on Aβ42, 100 nM.
In the case of `COc1cnc(C(=O)Nc2cccc(C3(C)Cn4cccc4C(N)=N3)c2)cn1` (racemic) [Compound 4, rac-5-methoxy-pyrazine-2-carboxylic acid [3-(1-amino-3-methyl-3,4-dihydro-pyrrolo[1,2-a]pyrazin-3-ye-phenyl]-amide], the IC50 is 93.3 nM with Aβtotal, 234 nM at BACE1 and 110 nM with Aβ42.
In the case of `COc1cnc(C(=O)Nc2ccc(F)c(C3(C(F)F)Cn4cccc4C(N)=N3)c2)cn1` (racemic) [Compound 11], the IC50 was 9.55 nM in the experiment with Aβtotal, 107 nM on BACE1 and 11 nM in the experiment on Aβ42.
Take `COc1cnc(C(=O)Nc2ccc(F)c(C3(C(F)F)Cn4cccc4C(N)=N3)c2)cn1` (single isomer, unassigned) [Compound 12]: the “Cellular αlisa assay in SKNBE2 cells Aβtotal pIC50” value in the experiment on Aβtotal is 7.9. Moreover, at BACE1, the IC50 was 37.2 nM. In addition, the “Cellular αlisa assay in SKNBE2 cells Aβ42 pIC50” value with Aβ42 amounted to 7.85.
For `COc1cnc(C(=O)Nc2ccc(F)c(C3(C(F)F)Cn4cccc4C(N)=N3)c2)cn1` (single isomer, unassigned) [Compound 13], the “Cellular αlisa assay in SKNBE2 cells Aβtotal pIC50” value in the experiment with Aβtotal was determined as 5.62. Besides, the IC50 at BACE1 is 18200 nM. Moreover, the “Cellular αlisa assay in SKNBE2 cells Aβ42 pIC50” value in the experiment on Aβ42 is given as 5.63.
For `COCC1(c2cc(NC(=O)c3ccn(C(F)F)n3)ccc2F)Cn2cc(C(F)(F)F)cc2C(N)=N1` (single isomer, unassigned) [Compound 31], the “Cellular αlisa assay in SKNBE2 cells Aβtotal pIC50” value in the experiment with Aβtotal was below 5. Besides, the IC50 on BACE1 was above 50100 nM. Moreover, the “Cellular αlisa assay in SKNBE2 cells Aβ42 pIC50” value with Aβ42 is given as below 5.
Regarding `COCC1(c2cc(NC(=O)c3ccn(C(F)F)n3)ccc2F)Cn2cc(C(F)(F)F)cc2C(N)=N1` (single isomer, unassigned) [Compound 32], the “Cellular αlisa assay in SKNBE2 cells Aβtotal pIC50” value with Aβtotal stood at 6.53. The IC50 on BACE1 is 1740 nM. For the same compound, the “Cellular αlisa assay in SKNBE2 cells Aβ42 pIC50” value with Aβ42 was found to be 6.54.
Consider `C[C@@]1(c2cc(NC(=O)c3ccc(Cl)cn3)ccc2F)Cn2cccc2C(N)=N1` [Compound 5, (R)-5-chloro-pyridine-2-carboxylic acid [3-(1-amino-3-methyl-3,4-dihydro-pyrrolo[1,2-a]pyrazin-3-yl)-4-fluoro-phenyl]-amide], for which the IC50 was 2.82 nM in the experiment on Aβtotal, 37.2 nM at BACE1 and 2.95 nM with Aβ42.
On to `COc1cnc(C(=O)Nc2ccc(F)c([C@]3(C)Cn4cc(F)cc4C(N)=N3)c2)cn1` [Compound 8, (R)-5-methoxy-pyrazine-2-carboxylic acid [3-(1-amino-7-fluoro-3-methyl-3,4-dihydro-pyrrolo[1,2-a]pyrazin-3-yl)-4-fluoro-phenyl]-amide], for which the IC50 in the experiment on Aβtotal was 2.04 nM; at BACE1, 33.1 nM; with Aβ42, 2.19 nM.
Consider `C[C@@]1(c2cc(NC(=O)c3ccc(C#N)cn3)ccc2F)Cn2cc(C(F)(F)F)cc2C(N)=N1` [Compound 9], for which the IC50 is 10.7 nM with Aβtotal, 33.9 nM on BACE1 and 12 nM in the experiment with Aβ42.
For `C[C@@]1(c2cc(NC(=O)c3ccn(C(F)F)n3)ccc2F)Cn2cc(C(F)(F)F)cc2C(N)=N1` [Compound 10] the same measures were 12.6 nM, 47.9 nM and 13.5 nM.
For the compound `NC1=NC(c2cc(NC(=O)c3ccc(F)cn3)ccc2F)(C(F)F)Cn2cccc21` (stereo not drawn) [Compound 14], the values for the IC50 in the experiment with Aβtotal, on BACE1 and in the experiment on Aβ42 were 35.5 nM, 174 nM and 37.2 nM, respectively.
For `C[C@@]1(c2cc(NC(=O)c3ncc(C#N)cc3F)ccc2F)Cn2cc(C(F)(F)F)cc2C(N)=N1` [Compound 15] the same measures were 8.91 nM, 36.3 nM and 9.33 nM.
In the same order, the values of `Cc1nc(C(=O)Nc2ccc(F)c([C@]3(C)Cn4cc(F)cc4C(N)=N3)c2)co1` [Compound 16] are 19.5 nM, 49 nM and 20.4 nM.
Take `Cc1nc(C(=O)Nc2ccc(F)c([C@]3(C)Cn4cc(F)cc4C(N)=N3)c2)c(C)o1` [Compound 17]: the IC50 with Aβtotal was 33.9 nM; at BACE1 it was 67.6 nM; in the experiment with Aβ42, 32.4 nM.
As for `Cc1nc(C(=O)Nc2ccc(F)c([C@]3(C)Cn4cc(F)cc4C(N)=N3)c2)c(C(F)(F)F)o1` [Compound 18], the results for the IC50 with Aβtotal, on BACE1 and in the experiment on Aβ42 were 30.9 nM, 83.2 nM and 31.6 nM, respectively.
For `Cc1nc(C(=O)Nc2ccc(F)c([C@]3(C)Cn4cc(C(F)(F)F)cc4C(N)=N3)c2)c(C)o1` [Compound 19] the same measures were 63.1 nM, 178 nM and 66.1 nM.
For `Cc1nc(C(=O)Nc2ccc(F)c([C@]3(C)Cn4cc(C(F)(F)F)cc4C(N)=N3)c2)co1` [Compound 20], the results for the IC50 in the experiment on Aβtotal, on BACE1 and with Aβ42 were 23.4 nM, 102 nM and 24 nM, respectively.
For the compound `Cc1nc(C(=O)Nc2ccc(F)c([C@]3(C)Cn4cc(C(F)(F)F)cc4C(N)=N3)c2)co1` [Compound 21], the “Cellular αlisa assay in SKNBE2 cells Aβtotal pIC50” value with Aβtotal is 7.79. In addition, the IC50 at BACE1 was 95.5 nM. Further, the “Cellular αlisa assay in SKNBE2 cells Aβ42 pIC50” value in the experiment on Aβ42 is 7.83.
Consider `C[C@@]1(c2cc(NC(=O)c3ccsn3)ccc2F)Cn2cc(C(F)(F)F)cc2C(N)=N1` [Compound 22], for which the figures for the IC50 in the experiment on Aβtotal, at BACE1 and in the experiment with Aβ42 were 47.9 nM, 224 nM and 49 nM, respectively.
In the case of `Cc1nc(C(=O)Nc2ccc(F)c([C@]3(C)Cn4cc(C(F)(F)F)cc4C(N)=N3)c2)c(C(F)(F)F)o1` [Compound 23], the IC50 with Aβtotal is 77.6 nM; on BACE1, 182 nM; in the experiment with Aβ42, 75.9 nM.
For `COCC1(c2cc(NC(=O)c3cnc(OC)cn3)ccc2F)Cn2cc(C(F)(F)F)cc2C(N)=N1` (stereo not drawn) [Compound 24], the “Cellular αlisa assay in SKNBE2 cells Aβtotal pIC50” value in the experiment with Aβtotal is 6.35. In addition, on BACE1, the IC50 is 3160 nM. The “Cellular αlisa assay in SKNBE2 cells Aβ42 pIC50” value in the experiment on Aβ42 is listed as 6.30.
For `COCC1(c2cc(NC(=O)c3ccc(F)cn3)ccc2F)Cn2cc(C(F)(F)F)cc2C(N)=N1` (stereo not drawn) [Compound 25] the same measures were 6.07, 5010 nM and 6.04.
With `COCC1(c2cc(NC(=O)c3ccn(C(F)F)n3)ccc2F)Cn2cc(C(F)(F)F)cc2C(N)=N1` (stereo not drawn) [Compound 26], the results for the IC50 with Aβtotal, at BACE1 and in the experiment with Aβ42 were 537 nM, 2880 nM and 501 nM, respectively.
For `COCC1(c2cc(NC(=O)c3cnc(OC)cn3)ccc2F)Cn2cc(C(F)(F)F)cc2C(N)=N1` (stereo not drawn) [Compound 27], the “Cellular αlisa assay in SKNBE2 cells Aβtotal pIC50” value with Aβtotal is recorded as below 5. In addition, the IC50 at BACE1 was above 50100 nM. For the same compound, the “Cellular αlisa assay in SKNBE2 cells Aβ42 pIC50” value with Aβ42 is on record as below 5.
With `COCC1(c2cc(NC(=O)c3cnc(OC)cn3)ccc2F)Cn2cc(C(F)(F)F)cc2C(N)=N1` (stereo not drawn) [Compound 28], the “Cellular αlisa assay in SKNBE2 cells Aβtotal pIC50” value in the experiment with Aβtotal is on record as 6.52. Further, at BACE1, the IC50 was 1910 nM. Moreover, the “Cellular αlisa assay in SKNBE2 cells Aβ42 pIC50” value with Aβ42 came out at 6.53.
For `COCC1(c2cc(NC(=O)c3ccc(F)cn3)ccc2F)Cn2cc(C(F)(F)F)cc2C(N)=N1` (stereo not drawn) [Compound 29] the same measures were 6.33, 2040 nM and 6.32.
